# Like-named read-outs stand apart in the source and are kept apart here.
# Assays:
# Test in all cases: selectivity profiling in a panel of 340 wild-type kinases (Reaction Biology Europe)
# Type in all cases: binding
# 340 wild-type kinases [1] = target: T1, 340 wild-type kinases (Homo sapiens, UniProt P07948)
# T1 construct: purchased Reaction Biology Europe
# 340 wild-type kinases [2] = target: T2, 340 wild-type kinases (Homo sapiens, UniProt P15735)
# T2 construct: purchased Reaction Biology Europe
# T2 sequence (P15735 1-406): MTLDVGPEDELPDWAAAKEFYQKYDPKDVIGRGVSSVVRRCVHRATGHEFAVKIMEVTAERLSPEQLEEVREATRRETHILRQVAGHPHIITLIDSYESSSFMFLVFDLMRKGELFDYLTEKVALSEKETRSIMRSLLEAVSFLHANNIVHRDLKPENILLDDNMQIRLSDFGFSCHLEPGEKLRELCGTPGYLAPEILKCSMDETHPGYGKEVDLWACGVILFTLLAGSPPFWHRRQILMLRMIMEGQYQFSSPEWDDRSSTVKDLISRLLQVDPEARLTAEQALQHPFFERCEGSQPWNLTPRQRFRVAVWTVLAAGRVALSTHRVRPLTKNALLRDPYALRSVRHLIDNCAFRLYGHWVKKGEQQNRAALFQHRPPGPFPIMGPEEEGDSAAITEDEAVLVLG
# 340 wild-type kinases [3] = target: T3, 340 wild-type kinases (Homo sapiens, UniProt P23443)
# T3 construct: purchased Reaction Biology Europe
# T3 sequence (P23443 whole entry): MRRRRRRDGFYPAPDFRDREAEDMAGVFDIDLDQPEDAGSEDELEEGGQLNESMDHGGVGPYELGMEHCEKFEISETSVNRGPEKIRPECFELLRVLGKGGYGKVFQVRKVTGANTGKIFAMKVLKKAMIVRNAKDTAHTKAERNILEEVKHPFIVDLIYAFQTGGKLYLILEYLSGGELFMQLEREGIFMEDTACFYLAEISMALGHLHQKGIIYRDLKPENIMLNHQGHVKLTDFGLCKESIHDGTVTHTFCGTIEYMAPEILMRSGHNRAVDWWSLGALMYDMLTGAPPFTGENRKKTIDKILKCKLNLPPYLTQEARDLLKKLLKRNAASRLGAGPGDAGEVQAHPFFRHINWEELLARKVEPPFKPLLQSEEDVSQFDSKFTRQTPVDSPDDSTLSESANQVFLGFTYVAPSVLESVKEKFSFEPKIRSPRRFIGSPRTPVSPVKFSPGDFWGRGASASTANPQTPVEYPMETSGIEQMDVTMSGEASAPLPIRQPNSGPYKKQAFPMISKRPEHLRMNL
# 340 wild-type kinases [4] = target: T4, 340 wild-type kinases (Homo sapiens, UniProt P25098)
# T4 construct: purchased Reaction Biology Europe
# T4 sequence (P25098 1-689): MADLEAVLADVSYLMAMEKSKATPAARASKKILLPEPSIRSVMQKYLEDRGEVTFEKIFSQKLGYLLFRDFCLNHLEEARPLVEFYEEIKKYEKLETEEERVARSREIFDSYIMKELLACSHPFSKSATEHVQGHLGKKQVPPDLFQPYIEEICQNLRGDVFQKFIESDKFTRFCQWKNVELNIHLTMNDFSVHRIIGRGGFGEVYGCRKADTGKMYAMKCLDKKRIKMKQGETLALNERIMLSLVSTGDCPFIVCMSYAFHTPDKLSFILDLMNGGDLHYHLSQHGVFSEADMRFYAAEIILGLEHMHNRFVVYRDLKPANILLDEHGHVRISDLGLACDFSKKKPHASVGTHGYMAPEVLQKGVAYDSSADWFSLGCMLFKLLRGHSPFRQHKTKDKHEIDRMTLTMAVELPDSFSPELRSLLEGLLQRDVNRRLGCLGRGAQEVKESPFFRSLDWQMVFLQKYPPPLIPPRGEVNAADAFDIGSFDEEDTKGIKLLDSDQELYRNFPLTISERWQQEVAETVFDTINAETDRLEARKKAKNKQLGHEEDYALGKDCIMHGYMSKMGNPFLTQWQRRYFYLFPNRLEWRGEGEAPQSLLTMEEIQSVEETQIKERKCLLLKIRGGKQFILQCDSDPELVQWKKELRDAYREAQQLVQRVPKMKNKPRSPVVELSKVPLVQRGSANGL
# 340 wild-type kinases [5] = target: T5, 340 wild-type kinases (Homo sapiens, UniProt P45983)
# T5 construct: purchased Reaction Biology Europe
# T5 sequence (P45983 whole entry): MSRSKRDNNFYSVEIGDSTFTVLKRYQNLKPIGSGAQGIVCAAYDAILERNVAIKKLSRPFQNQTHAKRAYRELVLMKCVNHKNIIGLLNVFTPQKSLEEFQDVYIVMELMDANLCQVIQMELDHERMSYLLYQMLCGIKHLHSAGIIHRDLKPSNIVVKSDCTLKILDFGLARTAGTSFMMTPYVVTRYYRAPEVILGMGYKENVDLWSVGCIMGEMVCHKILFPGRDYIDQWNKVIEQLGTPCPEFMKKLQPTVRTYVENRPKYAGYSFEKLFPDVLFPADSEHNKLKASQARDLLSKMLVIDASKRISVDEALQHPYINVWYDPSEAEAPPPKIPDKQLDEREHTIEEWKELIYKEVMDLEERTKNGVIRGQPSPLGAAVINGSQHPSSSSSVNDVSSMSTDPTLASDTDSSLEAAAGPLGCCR
# 340 wild-type kinases [6] = target: T6, 340 wild-type kinases (Homo sapiens, UniProt Q02763)
# T6 construct: purchased Reaction Biology Europe
# T6 sequence (Q02763 23-1124): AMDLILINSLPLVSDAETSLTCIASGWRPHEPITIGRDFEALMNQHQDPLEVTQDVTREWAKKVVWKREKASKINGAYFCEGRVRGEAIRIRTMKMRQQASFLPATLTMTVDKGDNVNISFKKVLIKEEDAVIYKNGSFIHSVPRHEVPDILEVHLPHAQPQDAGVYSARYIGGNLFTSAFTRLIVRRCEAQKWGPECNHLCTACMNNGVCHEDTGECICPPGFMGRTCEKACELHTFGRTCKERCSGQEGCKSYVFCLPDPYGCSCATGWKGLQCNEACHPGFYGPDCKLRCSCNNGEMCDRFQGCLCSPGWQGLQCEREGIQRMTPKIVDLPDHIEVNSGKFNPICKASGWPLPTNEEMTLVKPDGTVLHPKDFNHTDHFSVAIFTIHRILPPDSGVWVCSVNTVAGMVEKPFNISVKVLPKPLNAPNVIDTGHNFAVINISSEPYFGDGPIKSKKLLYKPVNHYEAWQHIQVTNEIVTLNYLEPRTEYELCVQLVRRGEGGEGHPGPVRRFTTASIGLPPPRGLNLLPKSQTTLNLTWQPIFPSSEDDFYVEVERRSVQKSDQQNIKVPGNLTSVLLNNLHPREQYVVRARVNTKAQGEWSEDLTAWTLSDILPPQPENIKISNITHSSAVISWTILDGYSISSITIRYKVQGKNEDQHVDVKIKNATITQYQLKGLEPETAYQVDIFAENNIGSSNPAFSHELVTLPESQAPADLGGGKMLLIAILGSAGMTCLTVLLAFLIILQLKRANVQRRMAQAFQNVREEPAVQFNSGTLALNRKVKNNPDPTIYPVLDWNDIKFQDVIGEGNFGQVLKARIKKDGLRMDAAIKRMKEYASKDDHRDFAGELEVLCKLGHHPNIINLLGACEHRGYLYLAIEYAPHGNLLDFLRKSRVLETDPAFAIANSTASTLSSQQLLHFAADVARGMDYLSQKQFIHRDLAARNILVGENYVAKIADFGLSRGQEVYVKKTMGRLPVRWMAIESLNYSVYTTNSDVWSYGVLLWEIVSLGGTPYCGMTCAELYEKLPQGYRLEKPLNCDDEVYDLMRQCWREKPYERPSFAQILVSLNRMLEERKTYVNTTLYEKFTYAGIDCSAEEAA
# 340 wild-type kinases [7] = target: T7, 340 wild-type kinases (Homo sapiens, UniProt Q32MK0)
# T7 construct: purchased Reaction Biology Europe
# T7 sequence (Q32MK0 1-819): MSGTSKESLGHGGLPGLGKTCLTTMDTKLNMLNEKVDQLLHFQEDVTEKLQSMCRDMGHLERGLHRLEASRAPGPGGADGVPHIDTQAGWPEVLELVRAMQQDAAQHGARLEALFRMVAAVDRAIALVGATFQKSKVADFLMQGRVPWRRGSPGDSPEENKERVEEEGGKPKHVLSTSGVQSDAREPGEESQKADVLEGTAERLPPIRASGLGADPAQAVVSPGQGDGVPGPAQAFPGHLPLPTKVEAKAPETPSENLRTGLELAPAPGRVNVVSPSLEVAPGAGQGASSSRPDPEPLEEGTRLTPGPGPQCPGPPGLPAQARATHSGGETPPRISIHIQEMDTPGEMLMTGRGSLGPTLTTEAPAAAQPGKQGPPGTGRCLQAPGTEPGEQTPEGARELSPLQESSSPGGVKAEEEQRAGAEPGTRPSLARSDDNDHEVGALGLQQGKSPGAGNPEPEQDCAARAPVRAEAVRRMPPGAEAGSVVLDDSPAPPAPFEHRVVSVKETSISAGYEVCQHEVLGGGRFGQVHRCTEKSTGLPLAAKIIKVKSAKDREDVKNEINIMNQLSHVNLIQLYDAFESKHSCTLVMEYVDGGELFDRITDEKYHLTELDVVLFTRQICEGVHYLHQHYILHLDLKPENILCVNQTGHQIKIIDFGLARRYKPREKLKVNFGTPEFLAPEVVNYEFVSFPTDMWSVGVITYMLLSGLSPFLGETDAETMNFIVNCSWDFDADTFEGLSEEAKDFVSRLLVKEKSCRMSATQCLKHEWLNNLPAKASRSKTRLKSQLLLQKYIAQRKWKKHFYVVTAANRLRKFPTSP
# 340 wild-type kinases [8] = target: T8, 340 wild-type kinases (Homo sapiens, UniProt Q5TCY1)
# T8 construct: purchased Reaction Biology Europe
# T8 sequence (Q5TCY1 whole entry): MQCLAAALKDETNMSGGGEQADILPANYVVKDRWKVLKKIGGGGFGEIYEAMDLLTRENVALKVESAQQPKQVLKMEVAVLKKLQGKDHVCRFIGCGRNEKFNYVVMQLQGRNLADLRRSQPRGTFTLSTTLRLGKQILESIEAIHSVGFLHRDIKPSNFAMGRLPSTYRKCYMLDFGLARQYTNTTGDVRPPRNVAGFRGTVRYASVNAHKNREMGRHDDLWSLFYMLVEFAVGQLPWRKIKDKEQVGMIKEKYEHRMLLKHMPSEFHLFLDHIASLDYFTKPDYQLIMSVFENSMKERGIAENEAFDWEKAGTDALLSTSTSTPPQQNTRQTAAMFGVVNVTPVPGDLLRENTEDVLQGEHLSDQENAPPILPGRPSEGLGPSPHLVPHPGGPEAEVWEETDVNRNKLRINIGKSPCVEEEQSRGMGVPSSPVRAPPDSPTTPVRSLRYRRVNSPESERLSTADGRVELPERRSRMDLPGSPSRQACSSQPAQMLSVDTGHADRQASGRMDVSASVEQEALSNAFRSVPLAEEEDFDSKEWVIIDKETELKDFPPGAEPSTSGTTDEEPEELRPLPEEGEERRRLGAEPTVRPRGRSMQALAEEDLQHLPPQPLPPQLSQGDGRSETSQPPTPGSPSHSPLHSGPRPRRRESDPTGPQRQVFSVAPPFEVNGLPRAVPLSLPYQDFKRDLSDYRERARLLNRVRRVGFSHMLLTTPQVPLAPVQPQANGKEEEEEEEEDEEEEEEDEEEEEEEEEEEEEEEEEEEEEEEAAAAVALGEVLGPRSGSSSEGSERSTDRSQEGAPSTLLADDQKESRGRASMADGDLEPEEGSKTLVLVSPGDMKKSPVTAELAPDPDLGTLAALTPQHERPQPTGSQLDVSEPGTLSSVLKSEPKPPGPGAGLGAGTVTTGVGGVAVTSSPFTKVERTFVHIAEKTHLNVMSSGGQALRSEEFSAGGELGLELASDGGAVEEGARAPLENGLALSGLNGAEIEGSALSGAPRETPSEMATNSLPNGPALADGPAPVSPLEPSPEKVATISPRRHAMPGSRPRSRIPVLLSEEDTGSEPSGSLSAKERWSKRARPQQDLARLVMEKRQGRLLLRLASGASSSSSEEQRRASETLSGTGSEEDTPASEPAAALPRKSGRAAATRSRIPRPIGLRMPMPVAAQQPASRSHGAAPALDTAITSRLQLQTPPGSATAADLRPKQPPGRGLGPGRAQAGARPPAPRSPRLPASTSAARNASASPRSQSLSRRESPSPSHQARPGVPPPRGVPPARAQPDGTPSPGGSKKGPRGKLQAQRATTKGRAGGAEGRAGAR
# 340 wild-type kinases [9] = target: T9, 340 wild-type kinases (Homo sapiens, UniProt Q9Y463)
# T9 construct: purchased Reaction Biology Europe
# T9 sequence (Q9Y463 whole entry): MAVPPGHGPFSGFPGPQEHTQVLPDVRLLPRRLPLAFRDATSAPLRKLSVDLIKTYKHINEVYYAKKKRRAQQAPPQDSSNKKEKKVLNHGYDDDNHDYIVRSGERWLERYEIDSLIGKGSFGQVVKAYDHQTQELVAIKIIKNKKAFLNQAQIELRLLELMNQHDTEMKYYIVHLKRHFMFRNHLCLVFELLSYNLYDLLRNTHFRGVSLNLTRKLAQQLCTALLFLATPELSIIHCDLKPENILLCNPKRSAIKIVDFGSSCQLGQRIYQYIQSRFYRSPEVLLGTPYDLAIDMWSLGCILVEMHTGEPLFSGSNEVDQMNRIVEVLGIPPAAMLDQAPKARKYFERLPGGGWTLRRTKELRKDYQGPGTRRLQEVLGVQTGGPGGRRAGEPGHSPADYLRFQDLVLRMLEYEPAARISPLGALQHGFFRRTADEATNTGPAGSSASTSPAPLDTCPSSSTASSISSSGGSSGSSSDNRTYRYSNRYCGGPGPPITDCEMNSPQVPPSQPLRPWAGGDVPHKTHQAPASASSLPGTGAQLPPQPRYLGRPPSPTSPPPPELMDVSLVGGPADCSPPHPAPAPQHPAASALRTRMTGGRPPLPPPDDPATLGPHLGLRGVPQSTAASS
# T1 sequence (P07948 whole entry): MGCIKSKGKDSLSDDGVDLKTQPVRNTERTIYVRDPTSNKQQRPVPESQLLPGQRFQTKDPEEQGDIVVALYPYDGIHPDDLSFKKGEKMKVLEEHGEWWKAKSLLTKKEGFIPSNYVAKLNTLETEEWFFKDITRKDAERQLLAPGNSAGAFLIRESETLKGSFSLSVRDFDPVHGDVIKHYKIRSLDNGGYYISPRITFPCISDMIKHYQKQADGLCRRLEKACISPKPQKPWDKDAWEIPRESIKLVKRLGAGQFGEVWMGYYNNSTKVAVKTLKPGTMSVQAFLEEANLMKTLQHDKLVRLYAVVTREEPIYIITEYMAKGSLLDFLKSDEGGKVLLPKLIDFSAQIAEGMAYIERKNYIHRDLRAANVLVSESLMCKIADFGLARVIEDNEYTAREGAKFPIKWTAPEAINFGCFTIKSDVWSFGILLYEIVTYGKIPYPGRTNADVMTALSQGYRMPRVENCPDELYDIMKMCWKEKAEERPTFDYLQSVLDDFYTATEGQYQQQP
smiles,measurement,setting,value
CNC(=O)c1ccc2c(c1)C(=O)c1ccc(Nc3ccc(F)c(NC(=O)C4CC4)c3)cc1CC2 [Compound 2015],remaining activity at 0.2 µM,"340 wild-type kinases [1]; 0.2 µM 2015, read-out: LYN residual activity",109%
same,remaining activity at 1 µM,"340 wild-type kinases [1]; 1 µM 2015, read-out: LYN residual activity",82.5%
same,remaining activity at 0.2 µM,"340 wild-type kinases [1]; LYN, 0.2 µM, read-out: residual activity",109%
same,remaining activity at 1 µM,"340 wild-type kinases [1]; LYN, 1 µM, read-out: residual activity",82.5%
same,remaining activity at 0.2 µM,"340 wild-type kinases [2]; 0.2 µM 2015, read-out: PHKG2 residual activity",102%
same,remaining activity at 1 µM,"340 wild-type kinases [2]; 1 µM 2015, read-out: PHKG2 residual activity",98.8%
same,remaining activity at 0.2 µM,"340 wild-type kinases [2]; PHKG2, 0.2 µM, read-out: residual activity",102%
same,remaining activity at 1 µM,"340 wild-type kinases [2]; PHKG2, 1 µM, read-out: residual activity",98.8%
same,remaining activity at 0.2 µM,"340 wild-type kinases [3]; 0.2 µM 2015, read-out: S6K residual activity",94.9%
same,remaining activity at 1 µM,"340 wild-type kinases [3]; 1 µM 2015, read-out: S6K residual activity",95.1%
same,remaining activity at 0.2 µM,"340 wild-type kinases [3]; S6K, 0.2 µM, read-out: residual activity",94.9%
same,remaining activity at 1 µM,"340 wild-type kinases [3]; S6K, 1 µM, read-out: residual activity",95.1%
same,remaining activity at 0.2 µM,"340 wild-type kinases [4]; 0.2 µM 2015, read-out: GRK2 residual activity",89.1%
same,remaining activity at 0.2 µM,"340 wild-type kinases [4]; GRK2, 0.2 µM, read-out: residual activity",89.2%
same,remaining activity at 1 µM,"340 wild-type kinases [4]; GRK2, 1 µM, read-out: residual activity",80.8%
same,remaining activity at 0.2 µM,"340 wild-type kinases [5]; 0.2 µM 2015, read-out: JNK1 residual activity",107%
same,remaining activity at 1 µM,"340 wild-type kinases [5]; 1 µM 2015, read-out: JNK1 residual activity",94.2%
same,remaining activity at 0.2 µM,"340 wild-type kinases [5]; JNK1, 0.2 µM, read-out: residual activity",107%
same,remaining activity at 1 µM,"340 wild-type kinases [5]; JNK1, 1 µM, read-out: residual activity",94.2%
same,remaining activity at 0.2 µM,"340 wild-type kinases [6]; 0.2 µM 2015, read-out: TIE2 residual activity",120%
same,remaining activity at 1 µM,"340 wild-type kinases [6]; 1 µM 2015, read-out: TIE2 residual activity",90.4%
same,remaining activity at 0.2 µM,"340 wild-type kinases [6]; TIE2, 0.2 µM, read-out: residual activity",120%
same,remaining activity at 1 µM,"340 wild-type kinases [6]; TIE2, 1 µM, read-out: residual activity",90.5%
same,remaining activity at 0.2 µM,"340 wild-type kinases [7]; 0.2 µM 2015, read-out: MYLK3 residual activity",106%
same,remaining activity at 1 µM,"340 wild-type kinases [7]; 1 µM 2015, read-out: MYLK3 residual activity",93.5%
same,remaining activity at 0.2 µM,"340 wild-type kinases [7]; MYLK3, 0.2 µM, read-out: residual activity",106%
same,remaining activity at 1 µM,"340 wild-type kinases [7]; MYLK3, 1 µM, read-out: residual activity",93.5%
same,remaining activity at 0.2 µM,"340 wild-type kinases [8]; 0.2 µM 2015, read-out: TTBK1 residual activity",88.5%
same,remaining activity at 1 µM,"340 wild-type kinases [8]; 1 µM 2015, read-out: TTBK1 residual activity",93.4%
same,remaining activity at 0.2 µM,"340 wild-type kinases [8]; TTBK1, 0.2 µM, read-out: residual activity",88.5%
same,remaining activity at 1 µM,"340 wild-type kinases [8]; TTBK1, 1 µM, read-out: residual activity",93.4%
same,remaining activity at 0.2 µM,"340 wild-type kinases [9]; 0.2 µM 2015, read-out: DYRK1B residual activity",96.9%
same,remaining activity at 1 µM,"340 wild-type kinases [9]; 1 µM 2015, read-out: DYRK1B residual activity",94.1%
same,remaining activity at 0.2 µM,"340 wild-type kinases [9]; DYRK1B, 0.2 µM, read-out: residual activity",96.9%
same,remaining activity at 1 µM,"340 wild-type kinases [9]; DYRK1B, 1 µM, read-out: residual activity",94.1%

# From paper PMC11864979, “First-in-class ultralong-target-residence-time p38α inhibitors as a mitosis-targeted therapy for colorectal cancer” (Nature Cancer, 2025)
